Measurements published in the NIST ThermoML archive (doi:10.1016/j.jct.2007.09.007).

Assay: xn = mol fraction of the nth substance listed
Conditions: 100 kPa, Liquid

C1COCCO1 [1,4-dioxane] + CC#N
mass density [kg/m3]
Conditions	288.15 K	293.15 K	298.15 K	303.15 K
x1 = 0.0046	789.4	784.08	778.69	773.26
x1 = 0.0101	791.73	786.38	780.98	775.56
x1 = 0.0249	797.92	792.61	787.21	781.78
x1 = 0.0336	801.42	796.07	790.67	785.24
x1 = 0.0497	808.04	802.72	797.32	791.89
x1 = 0.0627	813.27	807.95	802.55	797.13
x1 = 0.1106	831.43	826.1	820.71	815.28
x1 = 0.1643	850.48	845.16	839.75	834.33
x1 = 0.2127	866.78	861.44	856.05	850.62
x1 = 0.2853	889.43	884.08	878.67	873.24
x1 = 0.3355	904	898.64	893.23	887.8
x1 = 0.4341	930.27	924.89	919.46	914.02
x1 = 0.4807	941.65	936.29	930.86	925.4
x1 = 0.5277	952.67	947.29	941.85	936.38
x1 = 0.5828	964.93	959.51	954.06	948.58
x1 = 0.6385	976.54	971.14	965.66	960.16
x1 = 0.6845	985.67	980.25	974.76	969.25
x1 = 0.7278	993.97	988.54	983.03	977.5
x1 = 0.777	1002.84	997.35	991.82	986.28
x1 = 0.8181	1010.08	1004.61	999.06	993.5
x1 = 0.8703	1018.77	1013.28	1007.7	1002.12
x1 = 0.9145	1025.86	1020.33	1014.73	1009.11
x1 = 0.9604	1032.84	1027.29	1021.66	1016.03
x1 = 0.9652	1033.57	1027.98	1022.35	1016.71
x1 = 0.9757	1035.18	1029.58	1023.93	1018.3
x1 = 0.9817	1036.07	1030.46	1024.82	1019.17
x1 = 0.99	1037.29	1031.66	1025.99	1020.36
x1 = 0.9954	1038.08	1032.48	1026.83	1021.18

C1CCOC1 [tetrahydrofuran] + CC#N
mass density [kg/m3]
Conditions	288.15 K	293.15 K	298.15 K	303.15 K
x1 = 0.0053	788.34	783	777.57	772.17
x1 = 0.0104	789.18	783.84	778.44	773.01
x1 = 0.0197	790.72	785.35	779.94	774.52
x1 = 0.0294	792.28	786.96	781.56	776.11
x1 = 0.0389	793.83	788.5	783.1	777.67
x1 = 0.0993	803.2	797.8	792.41	786.97
x1 = 0.1598	812.11	806.78	801.3	795.84
x1 = 0.1978	817.43	812.02	806.63	801.18
x1 = 0.2441	823.65	818.27	812.84	807.39
x1 = 0.2845	828.9	823.5	818.1	812.64
x1 = 0.3445	836.2	830.81	825.36	819.91
x1 = 0.4022	842.91	837.51	832.02	826.57
x1 = 0.4545	848.62	843.24	837.79	832.34
x1 = 0.4995	853.35	847.94	842.49	837.08
x1 = 0.5298	856.4	851.03	845.55	840.1
x1 = 0.5552	858.94	853.51	848.07	842.6
x1 = 0.6054	863.65	858.25	852.78	847.29
x1 = 0.6405	866.78	861.42	855.96	850.47
x1 = 0.6603	868.52	863.15	857.69	852.2
x1 = 0.6976	871.74	866.29	860.83	855.34
x1 = 0.747	875.76	870.32	864.86	859.36
x1 = 0.8003	879.84	874.36	868.9	863.41
x1 = 0.8179	881.06	875.68	870.22	864.73
x1 = 0.8537	883.67	878.23	872.77	867.28
x1 = 0.8975	886.63	881.19	875.76	870.25
x1 = 0.9502	890	884.59	879.13	873.61
x1 = 0.9671	890.93	885.55	880.09	874.59
x1 = 0.9745	891.4	886.03	880.56	875.07
x1 = 0.9854	892.01	886.65	881.17	875.7
x1 = 0.9877	892.14	886.76	881.29	875.8
x1 = 0.994	892.51	887.12	881.66	876.13

CC(C)OC(C)C [diisopropyl ether] + CC#N
mass density [kg/m3]
Conditions	288.15 K	293.15 K	298.15 K	303.15 K
x1 = 0.0072	786.61	781.29	775.9	770.47
x1 = 0.015	785.8	780.49	775.1	769.68
x1 = 0.0247	784.84	779.54	774.15	768.74
x1 = 0.0308	784.29	778.97	773.59	768.17
x1 = 0.0381	783.55	778.25	772.87	767.46
x1 = 0.0482	782.56	777.27	771.89	766.48
x1 = 0.0991	777.78	772.47	767.11	761.72
x1 = 0.1496	773.32	768.06	762.72	757.34
x1 = 0.2511	765.5	760.24	754.91	749.55
x1 = 0.3069	761.73	756.5	751.18	745.83
x1 = 0.3507	758.83	753.58	748.27	742.93
x1 = 0.4104	755.28	750.02	744.74	739.4
x1 = 0.4513	752.87	747.67	742.35	737.04
x1 = 0.5132	749.57	744.35	739.06	733.73
x1 = 0.56	747.13	741.91	736.63	731.3
x1 = 0.6429	743.32	738.15	732.87	727.55
x1 = 0.6938	741.1	735.9	730.64	725.33
x1 = 0.76	738.32	733.12	727.83	722.53
x1 = 0.8129	736.2	731.02	725.76	720.46
x1 = 0.8449	735	729.8	724.53	719.26
x1 = 0.904	732.62	727.46	722.22	716.94
x1 = 0.9509	730.9	725.75	720.52	715.25
x1 = 0.963	730.42	725.28	720.05	714.78
x1 = 0.9685	730.2	725.06	719.83	714.56
x1 = 0.9815	729.68	724.52	719.32	714.06
x1 = 0.9887	729.4	724.27	719.05	713.79
x1 = 0.9945	729.15	724.02	718.81	713.55
